What was measured:
BJ = assay: CTG viability assay (CellTiter-Glo, 72 h); type: cell-based, human; settings: Homo sapiens, BJ; CellTiter-Glo, 72 h; non-cancerous cells
Description: (§1) All human cell lines were incubated at 37 °C in a 5% CO2 atmosphere and maintained under sterile conditions. Cells were tested for Mycoplasma (Lonza, Alpharetta, GA, USA) using the manufacturer’s conditions prior to experiments. Cell lines were purchased from American Type Culture Collection (ATCC, Manassas, VA, USA) or Leibniz-Institute Deutsche Sammlung von Mikroorganismen und Zellkulturen GmbH (DSMZ, Braunschweig, Germany) and cultured without antibiotics unless stated. Leukemia cells were cultured in RPMI and supplemented with 10% fetal bovine serum (FBS, Hyclone, Logan, UT, USA). SUP-B15, and KOPN-8 lines were cultured in RPMI supplemented with 10% FBS (Hyclone), 1% GlutaMAX™, 1% Pen/Step, and 0.1% β-mercaptoethanol. BJ cells were cultured in EMEM media supplemented with 10% FBS (Hyclone). Breast cancer cells (MDA-MB-231 & SUM149) were cultured in DMEM and Ham’s F12 respectively, supplemented with 10% FBS, 1% GlutaMAX™, 1% Pen/Step, and 2 µM cortisol/1 µg/mL insulin for SUM149. Both cells were grown to 80% confluence densities as recommended by ATCC. PBMCs were supplemented with concanavalin-A (5 μg/mL) and IL-2 (50 U/ml). To test general cytotoxicity, the following cell numbers were used for 384 well plates: KOPN-8 (ACC 552, infant human B cell precursor acute lymphoblastic leukemia with MLL-MLLt1/ENL fusion, 1000 cells/well), SUP-B15 (ACC389, human B cell precursor acute lymphoblastic leukemia of pediatric second relapse carrying the ALL-variant (m-bcr) of BCR-ABL1 fusion gene (e1-a2), 1600 cells/well), NALM-06 (DSMZ ACC128, non-T/non-B ALL at relapse with P15INK4B and P16INK4A deletions, 1200 cells/well), UoC-B1 (pediatric BCP-ALL at second relapse with TCF3/E2A-HFL fusion, 1000 cells/well), BJ (CRL-2522, normal human foreskin fibroblast cells, 400 cells/well) and PBMCs (periphery blood monocyte cells from healthy donors, IBC#BDC046, 10,000 cells/well).
(§2) Cytotoxicity evaluation was performed using the CellTiter-Glo Luminescent Cell Viability Assay kit (G7570, Promega, Madison, WI, USA), according to the manufacturer’s instructions. Briefly, the cell concentrations used were experimentally determined to ensure logarithmic growth during the 72-h duration of the experiment, and avoid adverse effects on cell growth by DMSO exposure. 1 × 10^3–4.8 × 10^3 or 4 × 10^2–1.2 × 10^3 cells/well were seeded in 96 or 384-well white flat-bottomed plates (3610 or 8804BC, Corning, Corning, NY, USA) in 100 µL or 30 µL/well, respectively. The plates were incubated at 37 °C in 5% CO2 for 24 h before drugging. Test compounds (10 mM in DMSO) in nine 3-fold serial dilutions were dispensed via pintool (Biomek liquid handler, Beckman, Indianapolis, USA) to assay plates. The final concentration of DMSO was 0.3% (v/v) in each well. The positive controls included staurosporine (10 μM), and gambogic acid (10 μM). The plates were incubated for 72 h at 37 °C in 5% CO2, then quenched with CellTiter-Glo® (Promega, Madison, WI, USA, 50 µL/96 or 30 µL/384), centrifuged at 1000 rpm for 1 min and incubated at RT for 20 min. Luminescence was recorded with a plate reader (Envision, Perkin Elmer, Waltham, MA, USA). The mean luminescence of each experimental treatment group was normalized as a percentage of the mean intensity of untreated controls. EC50 values were calculated by Pipeline Pilot software (Accelrys, Enterprise Platform, San Diego, CA, USA).

SUP-B15 [1] = assay: CTG viability assay (CellTiter-Glo, 72 h); type: cell-based, human; settings: Homo sapiens
Description: as §1, §2

KOPN-8 [2] = assay: CTG viability assay (CellTiter-Glo, 72 h); type: cell-based; settings: Homo sapiens, mean ± SEM of triplicates
Description: as §1, §2

NALM-06 = assay: CTG viability assay (CellTiter-Glo, 72 h); type: cell-based; settings: Homo sapiens, mean ± SEM of triplicates
Description: as §1, §2

PBMC = assay: CTG viability assay (CellTiter-Glo, 72 h); type: cell-based; settings: Homo sapiens, non-cancerous cells
Description: as §1, §2

UoC-B1 = assay: CTG viability assay (CellTiter-Glo, 72 h); type: cell-based; settings: Homo sapiens, mean ± SEM of triplicates
Description: as §1, §2

[3] = tested on: de novo protein synthesis in MDA-MB-231; assay: EZClick in-cell-click de novo protein synthesis assay; type: cell-based, human; settings: MDA-MB-231, 2 h exposure time
Description: Protein synthesis is essential in cell growth, proliferation, signaling, differentiation, and death. […] The assay includes a robust chemical method based on an alkyne containing o-propargyl-puromycin probe, which stops translation by forming covalent conjugates with nascent polypeptide chains. Truncated polypeptides are rapidly turned over by the proteasome and can be detected based on the subsequent click reaction with a fluorescent azide. To test whether these compounds (4–14) induced de novo protein synthesis inhibition, compounds were tested for a 2 h exposure time, under the same conditions as the known protein synthesis inhibitor cycloheximide (CHX) in MDA-MB-231 cell model following an in-cell-click de novo protein synthesis assay.
Biovision’s EZClick™ protein synthesis monitoring assay kit (EZClick™ Global Protein Synthesis Assay Kit, Catalog # K715-100, Milpitas, CA, USA) was used according to manufacturer’s protocol. The assay was conducted in 8-well chambered coverslips (ibidi GmbH µ-slide # 80826, Martinsried, Germany). Cells were plated at 2 × 10^4 per well and incubated at 37 °C for 12 h. Then, the cells were treated with compounds for 1.5 h and processed and stained according to protocol (representative images shown in Figure 4). Protein synthesis activity is shown in red, DNA staining is shown in green. Cycloheximide (CHX) was used as a positive control and DMSO as the negative control. Images shown were taken with a Marianas CSU-X spinning disk confocal imaging system (3i, Denver, CO, USA) configured with a Zeiss Axio Observer microscope (Carl Zeiss Inc., Thornwood, NY, USA) with diode lasers, at 63× magnification and resolution of 512 × 512 pixels (3i). For each field of view, an image stack consisting of 20 optical sections were taken at 63× magnification. The total intensity of red and green staining was quantified for the entire image stack. Six fields of view were analyzed per condition. Images shown represent a single optical section for each field of view. For each stack, the red intensity (protein synthesis) was adjusted to the green intensity (DNA content) in each image. The numbers from six images were used to calculate the average and standard deviation for each condition. Numbers were normalized to the negative control value arbitrarily set to one. The Slide viewer 6 software package was used for rendering and analysis of the images.

KOPN-8 [4] = assay: Cell cycle analysis (PI DNA content, flow cytometry); type: cell-based, human; settings: KOPN-8, 24 h; silvestrol 5 µM, 8 5 µM, 9 10 µM, 10 5 µM, 12 10 µM, 13 10 µM
Description: (§3) The samples were probed with AnnexinV-FITC (Roche/Boehringer Mannheim, Indianapolis, IN, USA) according to the manufacturer’s instructions. KOPN-8 or SUB-P15 cells were plated (1.00 × 10^6 cells/plate) and incubated for 12 h and incubated at 37 °C. Then, cells were treated with compounds or controls for 24 h. Cells were stained with AnnexinV-FITC, PI and the staining profiles were determined with FACScan and Cell-Quest software. For cellular DNA content, the same cell treatment as above was performed. Then, cells were fixed in cold 75% ethanol, treated with RNase and then stained with PI solution (50 µg/mL). Cell cycle distribution was analyzed with the FACSCalibur analyzer (BD Biosciences, Franklin Lakes, NJ, USA) and Cell-Quest software. The percentage of DNA content at different phases of the cell cycle was analyzed with ModFit-software (version 5.0, Verity Software House, Topsham, ME, USA).

SUP-B15 [5] = assay: as above; type: cell-based, human; settings: SUP-B15, 24 h
Description: as §3

KOPN-8 [6] = assay: Annexin V/PI apoptosis flow cytometry assay; type: cell-based, human; settings: KOPN-8, 24 h; for late apoptotic state or cell death: 10 µM; for live cells (Annexin-, PI-): 8 5 µM, 9 10 µM, 10 5 µM, 12 10 µM, 13 10 µM
Description: as §3

SUP-B15 [7] = assay: Annexin V/PI apoptosis flow cytometry assay; type: cell-based, human; settings: SUP-B15, 24 h; for late apoptotic state or cell death: 10 µM; for live cells (Annexin-, PI-): 8 5 µM, 9 10 µM, 10 5 µM, 12 10 µM, 13 10 µM
Description: as §3

[8] = SUP-B15, mean ± SEM of triplicates
[9] = SUP-B15, 72 h, mean ± SEM of triplicates

Row | Structure (SMILES) | EC50 (BJ) [µM] | EC50 (SUP-B15 [1]; [8]) [µM] | EC50 (KOPN-8 [2]) [µM] | EC50 (NALM-06) [µM] | EC50 (PBMC) [µM] | EC50 (UoC-B1) [µM] | de novo protein synthesis inhibition [3] | EC50 (SUP-B15 [1]; [9]) [µM] | cell cycle effect (KOPN-8 [4]) | reduction in the percentage of cells in the S phase (SUP-B15 [5]; 10 µM) | cell cycle effect (SUP-B15 [5]; silvestrol 5 µM, 8 5 µM, 9 10 µM, 10 5 µM, 12 10 µM, 13 10 µM) | late apoptotic state or cell death (KOPN-8 [6]) | live cells (Annexin-, PI-) (KOPN-8 [6]) | late apoptotic state or cell death (SUP-B15 [7]) | live cells (Annexin-, PI-) (SUP-B15 [7]) | increase in the percentage of cells in S phase (SUP-B15 [5]; 5 µM) | reduction in the percentage of cells in G2/M phase (SUP-B15 [5]; 5 µM)
1 | COc1cc2c(cc1O)[C@H]1Cc3ccc(OC)c(O)c3CN1CC2 [Compound 5] | > 43.3 | 29 ± 3.7 | 32 ± 7.6 | 8.38 ± 1.8 | > 43.3 | 17.3 ± 3.8 |  |  |  |  |  |  |  |  |  |  | 
2 | COc1ccc(CC2c3cc(O)c(OC)cc3CCN2C)cc1O (centres unmarked) [Compound 4] | > 46.8 | 38 ± 6.1 | 32.1 ± 3.5 | 18.3 ± 2.5 | > 86.8 | > 23.4 | Partial protein synthesis inhibition |  |  |  |  |  |  |  |  |  | 
3 | CC(C)(O)CC[C@@H](O)[C@](C)(O)[C@H]1CC[C@@]2(O)C3=CC(=O)[C@@H]4C[C@@H](O)[C@@H](O)C[C@]4(C)[C@H]3CC[C@]12C [Compound 11] | > 43.3 |  | > 43.3 | > 43.3 | > 43.3 | > 21.6 | no protein synthesis inhibition | 29 ± 6 |  |  |  |  |  |  |  |  | 
4 | C[C@H]([C@H](O)CCC(C)(C)O)[C@H]1CC[C@@]2(O)C3=CC(=O)[C@@H]4C[C@@H](O)[C@@H](O)C[C@]4(C)[C@H]3CC[C@]12C [Compound 12, ecdysone] | > 43.3 | 20.1 ± 3.2 | > 43.3 | > 43.3 | > 43.3 | > 21.6 | little to no protein synthesis inhibition |  | minimal effect on the cell cycle | ~ 10% | arrested G2/M | did not capture significant increase of late apoptotic state or cell death | small decrease in live cells | did not capture significant increase of late apoptotic state or cell death | small decrease in live cells |  | 
5 | COc1ccc2c(c[n+](C)c3c4cc5c(cc4ccc23)OCO5)c1OC [Compound 8, chelerythrine] | 29.8 |  | 0.821 ± 0.22 | 1.9 ± 0.2 | 7.89 | 1.96 ± 0.28 | no inhibition | 2.77 ± 0.36 | significant cell arrest in G1/G0 |  |  |  | not viable |  | not viable | ~ 20% | ~ 10%
6 | CCC1CN2CCc3cc(OC)c(OC)cc3C2CC1CC1NCCc2cc(O)c(OC)cc21 (centres unmarked) [Compound 6] | > 43.3 | 9.83 ± 0.5 | 0.16 ± 0.05 | 18.4 ± 3.1 | > 43.3 | > 21.6 |  |  |  |  |  |  |  |  |  |  | 
7 | CC(C)CC[C@@H](O)[C@](C)(O)[C@H]1CC[C@@]2(O)C3=CC(=O)[C@]4(O)C[C@@H](O)[C@@H](O)C[C@]4(C)[C@H]3[C@H](O)C[C@]12C [Compound 13, muristerone A] | > 43.3 |  | > 43.3 | 0.518 ± 0.15 | > 43.3 | > 21.6 | little to no protein synthesis inhibition | 9.5 ± 2.1 | minimal effect on the cell cycle |  |  | did not capture significant increase of late apoptotic state or cell death |  | did not capture significant increase of late apoptotic state or cell death |  |  | 

Source: publication PMC6571673, “Cytostatic and Cytotoxic Natural Products against Cancer Cell Models” (Molecules, 2019)
